Experimental data reported in publication PMC11412900 (Molecular Psychiatry, 2024).
Like-named read-outs stand apart in the source and are kept apart here.

Assays:
[1] = test system: head twitch response in mice; assay: Head twitch response (HTR); type: in vivo; settings: for Effect of antagonist pretreatment on tryptamine-induced HTR: antagonist s.c. 1 mg/kg 10 min before tryptamine i.p. 10 mg/kg; for HTR Emax (95% CI): 10-min period
Procedure: HTR studies were adapted from. Mice (N = 8–10 per group) were injected intraperitoneally (i.p.) with saline or the appropriate tryptamine dose (0.3, 1, 3, 10, or 30 mg/kg) and placed into the observation arena (25 × 25 × 40 cm). A camera mounted above the observation cage recorded the mice for the next 10 min after the injection. Another batch of animals (N = 8–10) received subcutaneous injections of either saline or the respective antagonist (WAY100635 1 mg/kg for 5-HT1AR or ketanserin 1 mg/kg for 5-HT2AR). After a 10-min interval, the animals were i.p. injected with the corresponding tryptamine (10 mg/kg) and placed in the observation arena. Animal behavior was recorded for the next 10 min after the last injection, as mentioned before. Video recordings were examined by two blind observers blinded to the treatments, who assessed the number of head twitches, defined as a rapid rotational jerk of the head which is not contiguous with any grooming behavior [39].
(§1) Data were expressed as means±standard deviation (SD). Competition, release and functional assays, and substrate-induced current curves were plotted and fitted by non-linear regression to obtain the IC50, EC50, and Emax values. For behavioral studies, data were fitted by non-linear regression and pED50 and Emax values (with the corresponding 95% CI) were estimated by means of a software (GraphPad Prism 10) that further extrapolates the data. The Cheng-Prusoff equation was used to calculate Ki (affinity): Ki = […]/(1 + [radioligand-concentration/Kd]). HTR curves were fitted using a Gaussian equation as described. Data from batch release assays were statistically analyzed with a mixed-effects model, employing Šidák’s correction for multiple comparisons. Total release at each concentration and the behavioral experiments with the corresponding antagonists were statistically analyzed using one-way ANOVA, followed by Tukey’s post-hoc test. Molecular volume (van der Waals) was calculated using a grid approximation (spacing 0.75 Å). logP was calculated using Molinspiration Cheminformatics software. For in vivo studies, one-way ANOVA with Dunnet’s post-hoc test was used to compare all conditions to saline in dose-response experiments when data were normally distributed. Otherwise, a non-parametric test (Kruskall-Wallis with Dunn’s post-hoc test) was used. Alpha was set at 0.05. Outliers were excluded following ROUT’s method (Q = 0.1%). All statistical analyses and Pearson correlations were conducted using GraphPad Prism 10 software (GraphPad software, San Diego, CA, USA).

SERT [2] = biological target: T1, SERT (Homo sapiens, UniProt P31645); assay: Radioligand binding, [3H]imipramine displacement
T1 construct: YFP (yellow-fluorescent protein); expressed in transfected cells
Procedure: (§2) Binding assays were performed as described previously. Briefly, membrane preparations expressing h5-HT1AR, h5-HT2AR or hSERT (see Supplementary Material) were incubated with radiolabeled selective ligands 0.4 nM [^3H]8-OH-DPAT, 1 nM [^3H]ketanserin or 3 nM [^3H]imipramine, respectively. The drugs were diluted in the corresponding binding buffer and tested at increasing concentrations in duplicate. Binding reactions were performed in tubes containing the drug dilutions; 25 μl of the corresponding radioligand; and the membranes (10 μg and 5 μg/500 μL for 5-HT1AR and 5-HT2AR, respectively, and 15 μg/100 μL for hSERT), all diluted in binding buffer. […] Incubation was performed for 1 h at 27 °C for 5-HT1A/2AR and 22 °C for hSERT, according to the manufacturer’s protocol (Perkin Elmer, Inc., Waltham, MA, USA) and previous studies - saturation and kinetic experiments, respectively. The binding reactions were stopped by rapid filtration through GF/B glass microfiber filters pre-soaked with 0.5% polyethyleneimine and washing with ice-cold wash buffer. The filters were placed into vials and scintillation cocktail was added. The trapped radioactivity was quantified. Specific binding was defined as the difference between total binding (binding buffer alone) and non-specific binding. Experiments were conducted per duplicate for at least three independent experiments.
(§3) The generation and maintenance of HEK293 cells stably expressing the yellow-fluorescent protein (YFP)-tagged version of the human isoform of SERT (hSERT) (Perkin Elmer, Waltham, MA, USA) was carried out as described previously. For uptake inhibition and batch release assays, cells were seeded onto previously poly-D-lysine (PDL)-coated 96-well plates at a density of 0.036 million cells per well [5]. For superfusion release assays, cells were seeded onto a previously coated with PDL 6 channel µ-slide at a density of 0.08 million cells per channel. Prior to patching, cells were grown in DMEM containing 10% FBS, Zeocin (150 µg/mL) and Blasticidin (6 µg/mL) for positive selection of transporter-expressing clones. The cells were seeded at a low density on PDL-coated 35 mm plates 24-48 hr prior to patching. For membrane preparation, HEK293 cells expressing hSERT transporters were harvested from 80–90% confluent dishes as described elsewhere. Protein concentration was determined using the Bio-RadProtein Reagent (Bio Rad Laboratories, Hercules, CA, USA). Membrane preparations were stored at −80°C until use. Generation and maintenance of CHO-K1 cells expressing the human isoform of 5-HT2AR (h5-HT2AR) was carried out as described in the manufacturer’s protocol (Perkin Elmer, Waltham, MA, USA). Routine DAPI-Staining assays tested negative in mycoplasma contamination.

SERT [3] = biological target: T1, SERT; assay: [3H]5-HT uptake inhibition in HEK293 cells expressing hSERT; type: cell-based
Procedure: See the Supplementary Material for cell culture procedures. The medium was removed from each well and replaced with 200 μL/well of Krebs-HEPES-Buffer (KHB). The cells were pre-incubated for 5 min with different concentrations of drug in KHB at 50 μL/well. […] The incubation solution was aspirated and the cells were washed with ice-cold KHB and lysed with 1% sodium dodecyl sulfate (SDS). The lysate was collected into vials and scintillation liquid was added. The radioactivity was quantified using a beta-scintillation counter (Perkin Elmer, Waltham, MA, USA). Non-specific uptake was determined in the presence of 30 μM paroxetine. Data were expressed as percentage of control uptake (absence of tryptamine).
as §3

[4] = test system: core body temperature in mice; assay: Core body temperature measurement; type: in vivo
Procedure: Rectal temperature of mice (N = 8–10 per group) was measured 60 min after i.p. injection of the corresponding compound (see previous section “Head twitch response”). This time point was chosen according to the maximal effect observed in pilot experiments. A thermocouple probe (YS451, Panlab, Barcelona, Spain) connected to a digital thermometer (TMP812RS, Panlab, Barcelona, Spain) was inserted 2 cm into the rectum and steady temperature readout was obtained after 10 s of insertion.
as §1

[5] = test system: horizontal locomotor activity in mice; assay: Horizontal locomotor activity (HLA); type: in vivo; settings: i.p., 30 min; for HLA (hypolocomotion) Emax (95% CI): total traveled distance
Procedure: The HLA test was carried out according to a previous study. The same animals (N = 8–10 per group) used for the assessment of HTR were recorded for 30 min in an observation arena, under low-light conditions with white noise. Video recordings were processed using a tracking software (Smart 3.0 Panlab, Barcelona, Spain) to measure the total traveled distance.
as §1

SERT [6] = biological target: T1, SERT; assay: Batch release of preloaded [3H]5-HT from HEK293 cells expressing SERT; type: cell-based; settings: with or without monensin, pCA as positive control
Procedure: Batch release is a functional radiometric assay to assess transporter-mediated efflux. […] Subsequently, cells were washed three times with KHB and equilibrated for 10 min in KHB or KHB+monensin (10 µM). […] 10 µM pCA and 0.05 µM paroxetine were used as positive and negative controls, respectively. Liquid scintillation cocktail was added both to the wells containing cells (200 µL) and to the transferred supernatant (100 µL). Total radioactivity determined from/in the remaining lysate of the cells plus the transferred supernatant was set as 100%, and the radioactivity determined in each fraction was expressed as a percentage thereof. Assays were performed per duplicate for five independent experiments.

SERT [7] = biological target: T1, SERT; assay: Whole-cell patch clamp, transporter-mediated currents in HEK293 cells; type: cell-based
Description: Whole-cell patch clamping was used to measure the transporter-mediated currents and performed as previously described. […] Cells were continuously superfused by a DAD-12 superfusion system and an 8-tube perfusion manifold (ALA Scientific Instruments in Farmingdale, NY, USA), which allowed to apply a physiological external solution. The pipette solution mimics the internal ionic composition of a cell. […] Passive holding currents were subtracted, and the traces were filtered using a 50-Hz digital Gaussian low-pass filter for analysis purposes. Five independent experiments were performed.

h5-HT1AR = biological target: T2, h5-HT1AR (Homo sapiens, UniProt P08908); assay: Radioligand binding, [3H]8-OH-DPAT displacement; settings: 0.4 nM [3H]8-OH-DPAT, N ≥ 3; read-out: 5-HT1AR Ki ± SD
T2 construct: purchased Perkin Elmer, Inc. (Waltham, MA, USA)
T2 sequence (P08908 1-422): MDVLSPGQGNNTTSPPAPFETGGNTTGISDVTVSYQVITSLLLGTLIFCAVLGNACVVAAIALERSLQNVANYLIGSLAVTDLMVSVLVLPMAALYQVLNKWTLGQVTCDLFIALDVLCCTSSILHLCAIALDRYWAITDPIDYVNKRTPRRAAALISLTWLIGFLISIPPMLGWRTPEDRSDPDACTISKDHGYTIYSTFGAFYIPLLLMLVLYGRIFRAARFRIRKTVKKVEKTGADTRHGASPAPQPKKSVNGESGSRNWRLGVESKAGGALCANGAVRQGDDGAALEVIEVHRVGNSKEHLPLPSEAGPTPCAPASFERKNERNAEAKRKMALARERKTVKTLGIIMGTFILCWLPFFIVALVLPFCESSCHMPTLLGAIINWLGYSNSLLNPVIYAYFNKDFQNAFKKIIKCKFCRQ
Procedure: as §2

h5-HT2AR = biological target: T3, h5-HT2AR (Homo sapiens, UniProt P28223); type: binding; settings: 1 nM [3H]ketanserin, N ≥ 3; read-out: 5-HT2AR Ki ± SD
T3 construct: purchased Perkin Elmer, Inc. (Waltham, MA, USA)
Procedure: as §2

[8] = 3 nM [3H]imipramine, N ≥ 3, read-out: SERT Ki ± SD
[9] = read-out: 5-HT uptake inhibition IC50 ± SD, HEK293 hSERT, N ≥ 3
[10] = mice, i.p., 10 min after injection
[11] = mice, i.p., 60 min after injection

T1 sequence (P31645 whole entry): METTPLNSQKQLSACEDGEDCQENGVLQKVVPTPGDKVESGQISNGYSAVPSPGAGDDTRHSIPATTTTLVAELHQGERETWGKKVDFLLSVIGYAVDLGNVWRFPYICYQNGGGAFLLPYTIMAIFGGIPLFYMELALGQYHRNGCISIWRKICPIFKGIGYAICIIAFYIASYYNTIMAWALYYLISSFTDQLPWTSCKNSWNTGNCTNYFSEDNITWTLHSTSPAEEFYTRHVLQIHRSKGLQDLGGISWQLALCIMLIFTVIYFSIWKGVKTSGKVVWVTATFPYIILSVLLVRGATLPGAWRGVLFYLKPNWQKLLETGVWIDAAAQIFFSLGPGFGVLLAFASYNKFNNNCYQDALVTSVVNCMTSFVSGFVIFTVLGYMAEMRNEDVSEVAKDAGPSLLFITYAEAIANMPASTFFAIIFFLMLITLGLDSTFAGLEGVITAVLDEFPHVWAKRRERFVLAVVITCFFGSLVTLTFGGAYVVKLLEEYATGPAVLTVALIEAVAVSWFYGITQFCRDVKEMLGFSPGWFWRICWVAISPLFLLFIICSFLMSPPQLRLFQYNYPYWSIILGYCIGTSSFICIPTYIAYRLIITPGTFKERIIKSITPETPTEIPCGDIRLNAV
T3 sequence (P28223 whole entry): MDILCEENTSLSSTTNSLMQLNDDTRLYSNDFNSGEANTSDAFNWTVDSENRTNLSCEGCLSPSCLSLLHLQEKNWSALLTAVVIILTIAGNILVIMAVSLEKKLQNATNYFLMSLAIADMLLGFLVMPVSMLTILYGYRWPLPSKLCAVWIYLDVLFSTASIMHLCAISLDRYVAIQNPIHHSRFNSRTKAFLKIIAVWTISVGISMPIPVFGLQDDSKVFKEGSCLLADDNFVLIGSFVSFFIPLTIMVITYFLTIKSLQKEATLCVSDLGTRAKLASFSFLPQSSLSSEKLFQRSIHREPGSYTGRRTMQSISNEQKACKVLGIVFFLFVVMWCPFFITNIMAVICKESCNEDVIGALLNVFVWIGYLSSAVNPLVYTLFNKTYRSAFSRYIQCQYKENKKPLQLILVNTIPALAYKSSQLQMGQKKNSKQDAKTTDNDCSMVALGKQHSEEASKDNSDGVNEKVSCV

| Compound | Effect of antagonist pretreatment on tryptamine-induced HTR [1] | HTR Emax (95% CI) ([1]; mice, i.p.) | HLA (hypolocomotion) Emax (95% CI) [5] | Ki (h5-HT1AR) | Ki (h5-HT2AR) | Ki (SERT [2]; [8]) | IC50 (SERT [3]; [9]) | HTR ED50 [1, 10] | Change in body temperature ED50 [4, 11] | HLA (hypolocomotion) ED50 [5] | other results |
| --- | --- | --- | --- | --- | --- | --- | --- | --- | --- | --- | --- |
| O=C(c1ccc(F)cc1)C1CCN(CCn2c(=O)[nH]c3ccccc3c2=O)CC1 [ketanserin, reference compound] | prevented HTR response |  |  |  |  |  |  |  |  |  |  |
| COc1ccc2[nH]cc(CCN(C)C)c2c1 [5-MeO-DMT, 5-methoxy-N,N-dimethyltryptamine] |  | 38.1 (31.7–44.5) HTR events | 41.72 (32.18–51.26) % reduction |  |  |  |  |  |  |  | Ki (SERT [2]): 14.5 µM; IC50 (SERT [3]): 50.1 µM; ED50 ([1]; Mus musculus, ip, 10 min, mice, i.p., 10 min after injection): 4.84 mg/kg; ED50 ([4]; Mus musculus, ip, 1 h, mice, i.p., 60 min after injection, read-out: Change in body temperature ED50): 4.75 mg/kg; ED50 ([5]; Mus musculus, ip, 0.5 h, read-out: HLA (hypolocomotion) ED50): 0.976 mg/kg; 5-HT releasing activity (SERT [6]): capable of evoking 5-HT release; EC50 (SERT [7]): 2.6 µM; SERT-mediated inward current Emax (SERT [7]; normalized to current elicited by 5-HT 10 µM): 0.41; SERT substrate type (SERT [7]; whole-cell patch clamp): partial SERT substrates |
| C=CCN(C)CCc1c[nH]c2ccc(OC)cc12 [5-MeO-MALT] |  | 27.6 (23.2–32.0) HTR events | 85.40 (55.18–115.6) % reduction | 0.00596 ± 0.00047 µM | 0.0529 ± 0.009 µM | 4.01 ± 0.417 µM | 44.1 µM | 0.796 mg/kg | 10.2 mg/kg | 7.32 mg/kg |  |
| COc1ccc2[nH]cc(CCNC(C)C)c2c1 [5-MeO-NIPT] |  | 7.58 (5.46–9.71) HTR events | 77.64 (69.78–85.50) % reduction | 0.0157 ± 0.0023 µM | 0.123 ± 0.038 µM | 8.59 ± 1.71 µM | 32.1 µM | 4.85 mg/kg | 7.35 mg/kg | 1.96 mg/kg |  |
| COc1ccccc1N1CCN(CCN(C(=O)C2CCCCC2)c2ccccn2)CC1 [WAY100635, reference compound] | the number of head twitches increased significantly |  |  |  |  |  |  |  |  |  | Effect of antagonist pretreatment on tryptamine-induced decrease in body temperature ([4]; antagonist s.c. 1 mg/kg before tryptamine i.p. 10 mg/kg, 60 min): the decrease in body temperature was lower |
